Our source for the GI50 and TGI values is PubChem BioAssay (NCI).

Where “and” joins values, the source holds several entries; their conditions need not be identical. Identical values can stand only once.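 Interpolation was linear, between the two tested concentrations surrounding the appropriate level; five concentrations were tested over 48 hours in 96-well plates. Here, GI50 denotes the concentration required for 50% inhibition of growth. TGI: concentration producing complete growth inhibition.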

Some test systems named below: COLO 205 colon; UACC-62 melanoma; TK-10 renal; HCC-2998 colon; EKVX NSCLC; NCI/ADR-RES ovarian; KM12 colon; NCI-H226 lung; CAKI-1 renal.
What all share (assay): growth of human tumour cells (NCI), 48 h

As for `CCSCC1CC(O)(c2ccccc2)C(c2ccccc2)C(c2ccc(Cl)cc2)O1` (stereo unspecified), the GI50 is 1.53 µM in the assay on COLO 205 colon; 1.4 µM with UACC-62 melanoma; 2.27 µM in the assay with TK-10 renal; 1.82 µM in the assay on HCC-2998 colon; 1.38 µM with EKVX NSCLC; 1.97 µM in the assay on NCI/ADR-RES ovarian. Besides, the GI50 in the assay with KM12 colon is 2.56 µM; with NCI-H226 lung, 1.74 µM; in the assay with CAKI-1 renal it was 1.49 µM. Moreover, the TGI came out at 2.94 µM with COLO 205 colon; 3.01 µM with UACC-62 melanoma; 5.4 µM in the assay with TK-10 renal; 3.58 µM in the assay on HCC-2998 colon; 4.29 µM in the assay with EKVX NSCLC; 5.34 µM with NCI/ADR-RES ovarian. Further, the TGI with KM12 colon was 6.92 µM; with NCI-H226 lung it was 3.97 µM; in the assay on CAKI-1 renal it was 4.06 µM.
As to `CC[C@]1(O)CC(OC2CC(N(C)C)C(O)C(C)O2)c2c(cc3c(c2O)C(=O)c2c(O)cccc2C3=O)[C@@H]1C(=O)OC` (stereo partly specified), the TGI amounted to 3.79 µM in the assay with COLO 205 colon; 0.904 µM in the assay with UACC-62 melanoma; 5.07 µM in the assay on TK-10 renal; 1.54 µM with HCC-2998 colon; 3.86 µM with EKVX NSCLC; 3.95 µM in the assay with NCI/ADR-RES ovarian. The TGI with KM12 colon was 3.2 µM; with NCI-H226 lung, 2.17 µM; in the assay on CAKI-1 renal it was 0.377 µM.
Regarding `C[C@@H]1COCCN1c1cc(C2([S@](C)(=N)=O)CC2)nc(-c2ccnc3[nH]ccc23)n1`, the GI50 in the assay with COLO 205 colon is 6.18 µM and > 10 µM; with UACC-62 melanoma it was 2.34 µM and 1.76 µM; in the assay on TK-10 renal it was 3.69 µM and 1.68 µM; with HCC-2998 colon, 2.56 µM and 4.97 µM; in the assay on EKVX NSCLC, 6.07 µM and > 10 µM; with NCI/ADR-RES ovarian, 26.2 µM and > 10 µM. Besides, the GI50 is 4.21 µM and 3.95 µM in the assay on KM12 colon; 4.98 µM and 8.53 µM in the assay on NCI-H226 lung; 6.06 µM and 4.17 µM in the assay with CAKI-1 renal. The TGI is 43.1 µM and > 10 µM in the assay on COLO 205 colon; 16.6 µM and > 10 µM in the assay on UACC-62 melanoma; over 59.7 µM in the assay on TK-10 renal; over 100 µM in the assay with HCC-2998 colon; 61.7 µM and > 10 µM in the assay on EKVX NSCLC; over 100 µM in the assay on NCI/ADR-RES ovarian. Moreover, the TGI was over 100 µM in the assay with KM12 colon; 51.3 µM and > 10 µM in the assay on NCI-H226 lung; 75.9 µM and > 10 µM with CAKI-1 renal.
Regarding `Cc1c(N2CCCC2)cc2c(c1NC(=O)c1ccccc1Cl)C(C)(C)CC2(C)C`, the TGI in the assay on COLO 205 colon was determined as 35.2 µM; in the assay on UACC-62 melanoma, 23.2 µM; with TK-10 renal it was 23.1 µM; in the assay with HCC-2998 colon it was 25.9 µM; in the assay with EKVX NSCLC, 29.9 µM; in the assay on NCI/ADR-RES ovarian, 29.5 µM. Besides, the TGI with KM12 colon came out at 30.3 µM; in the assay on NCI-H226 lung it was 41.5 µM; with CAKI-1 renal, 26.1 µM.
As to `CC12CCC3C(CCC4Cc5[nH]c6ccccc6c5CC43C)C1CCC2O` (stereo unspecified), the GI50 in the assay on COLO 205 colon was 2.76 µM; in the assay on UACC-62 melanoma, 0.284 µM; in the assay on TK-10 renal it was 2.73 µM; in the assay on HCC-2998 colon, 0.633 µM; with EKVX NSCLC, 3.69 µM; with NCI/ADR-RES ovarian, 0.481 µM. For the same molecule, the GI50 is 2.8 µM in the assay with KM12 colon, 6.08 µM with NCI-H226 lung and 0.791 µM with CAKI-1 renal. For the same molecule, the TGI in the assay on COLO 205 colon was 6.78 µM; with UACC-62 melanoma, 2.35 µM; in the assay on TK-10 renal it was over 100 µM; in the assay with HCC-2998 colon, 2.54 µM; with EKVX NSCLC, over 100 µM; with NCI/ADR-RES ovarian, 5.54 µM. For the same molecule, the figures for the TGI with KM12 colon, with NCI-H226 lung and in the assay on CAKI-1 renal were 8.61 µM, over 100 µM and over 100 µM, respectively.
In the case of `CC(C)[C@]12O[C@H]1[C@@H]1O[C@]13[C@]1(O[C@H]1C[C@H]1C4=C(CC[C@@]13C)C(=O)OC4)[C@@H]2O`, the GI50 is 0.0117 µM in the assay on COLO 205 colon; 0.011 µM in the assay with UACC-62 melanoma; 0.0278 µM with TK-10 renal; 0.0212 µM with HCC-2998 colon; 0.0166 µM in the assay on EKVX NSCLC; 0.102 µM in the assay on KM12 colon. The GI50 in the assay with NCI-H226 lung was under 0.011 µM; in the assay with CAKI-1 renal it was 0.0111 µM and < 0.01 µM. Further, the TGI in the assay on COLO 205 colon was 0.0219 µM and 0.0366 µM; with UACC-62 melanoma, 0.0241 µM and 0.026 µM; in the assay on TK-10 renal, over 100 µM; in the assay on HCC-2998 colon, 0.0912 µM and 0.761 µM; in the assay with EKVX NSCLC it was 0.0994 µM and 0.283 µM; in the assay with NCI/ADR-RES ovarian, 0.0922 µM. The TGI was 0.0731 µM and 0.12 µM with NCI-H226 lung; over 100 µM with CAKI-1 renal.
As to `Clc1ccc(CSC(Cn2ccnc2)c2ccc(Cl)cc2Cl)cc1` (stereo unspecified), the GI50 in the assay on COLO 205 colon was 1.5 µM; in the assay on UACC-62 melanoma, 1.17 µM; in the assay on TK-10 renal it was 1.53 µM; with HCC-2998 colon, 1.64 µM; in the assay on EKVX NSCLC, 1.53 µM; with NCI/ADR-RES ovarian, 1.46 µM. Further, the GI50 with KM12 colon is 1.66 µM; with NCI-H226 lung it was 1.38 µM; with CAKI-1 renal, 1.55 µM. Also, the TGI in the assay on COLO 205 colon was found to be 2.83 µM; in the assay with UACC-62 melanoma, 2.43 µM; with TK-10 renal, 2.89 µM; in the assay on HCC-2998 colon, 3.12 µM; in the assay with EKVX NSCLC it was 4.55 µM; with NCI/ADR-RES ovarian, 3.05 µM. Besides, the TGI in the assay on KM12 colon is 3.3 µM; in the assay on NCI-H226 lung it was 2.84 µM; with CAKI-1 renal it was 4.05 µM.
On to `CCOC(=O)c1ccc2[nH]c(-c3ccc(S(=O)(=O)F)cc3)cc(=O)c2c1`, for which the TGI in the assay with COLO 205 colon was over 100 µM; in the assay with UACC-62 melanoma, 76.2 µM; in the assay on TK-10 renal, over 100 µM; in the assay with HCC-2998 colon, 40 µM; in the assay with EKVX NSCLC, over 100 µM; in the assay on NCI/ADR-RES ovarian, over 100 µM. Besides, the TGI with KM12 colon, in the assay on NCI-H226 lung and in the assay with CAKI-1 renal was over 100 µM in each case.
For the molecule `COc1cc(C(=O)/C=C/c2c(C)n([O-])c3ccc(C)cc3[n+]2=O)cc(OC)c1OC`, the GI50 with COLO 205 colon was 2 µM; with UACC-62 melanoma, 8.46 µM; in the assay on TK-10 renal, 3.77 µM; in the assay with HCC-2998 colon it was 17 µM; in the assay with EKVX NSCLC, 19.4 µM; in the assay on NCI/ADR-RES ovarian it was 8.47 µM. In addition, the GI50 in the assay with KM12 colon is 13 µM; with NCI-H226 lung, 30.6 µM; in the assay with CAKI-1 renal it was 2.2 µM. For the same molecule, the TGI in the assay with COLO 205 colon is 3.99 µM; with UACC-62 melanoma, 32.4 µM; in the assay with TK-10 renal it was over 34.6 µM; with HCC-2998 colon it was 31 µM; in the assay with EKVX NSCLC it was over 100 µM; in the assay on NCI/ADR-RES ovarian it was over 70.6 µM. For the same molecule, the TGI in the assay on KM12 colon was 27.6 µM; with NCI-H226 lung, over 100 µM.
With `Cc1c2cc[n+](C)cc2c(C)c2c1sc1ccccc12`, the TGI with COLO 205 colon is 7.71 µM; in the assay with UACC-62 melanoma it was 4.25 µM; in the assay on TK-10 renal, 68.5 µM; with HCC-2998 colon it was 6.28 µM; in the assay with EKVX NSCLC it was over 50.2 µM; in the assay with NCI/ADR-RES ovarian it was over 100 µM. Besides, the TGI in the assay with KM12 colon turned out to be 2.97 µM; with NCI-H226 lung, 2.11 µM; in the assay on CAKI-1 renal, 60.6 µM.
